Measurements: ChEMBL document CHEMBL1201862, “PubChem BioAssay data set” (2004)
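Dose response: 5 concentrations. Exposure: 48 h. Format: 96-well plates. Endpoint: linear interpolation; highest concentration if not reached. At the GI50, growth is halved.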 Activity calls are given as the source filed them. No stated cut-off is given here; in the data, active = GI50 up to about 1.1 µM and inactive = higher.

What was measured:
Assay in all cases: inhibition of tumour cell growth, NCI panel, 48 h
SNB-75 = test system: SNB-75
HCT-15 = test system: HCT-15
KM12 = test system: KM12
SR = test system: SR
NCI-H226 = test system: NCI-H226
SN12C = test system: SN12C
UACC-257 = test system: UACC-257
COLO 205 = test system: COLO 205
MDA-N = test system: MDA-N
A498 = test system: A498
PC-3 = test system: PC-3
MOLT-4 = test system: MOLT-4
A549 = test system: A549
ACHN = test system: ACHN
SK-MEL-2 = test system: SK-MEL-2
SF-268 = test system: SF-268
T47D = test system: T47D
SK-OV-3 = test system: SK-OV-3
OVCAR-3 = test system: OVCAR-3
EKVX = test system: EKVX

Measured: GI50

CN(C)c1ccc(C=c2c3ccccc3n3c2c2c([n+]3C)CCCC2)cc1
active: SNB-75 0.0796 µM | KM12 0.0681 µM | SR 0.0233 µM | NCI-H226 0.447 µM | SN12C 0.146 µM | UACC-257 0.301 µM | COLO 205 0.0301 µM | MDA-N 0.1 µM | A498 0.247 µM | PC-3 0.219 µM | MOLT-4 0.116 µM | A549 0.0728 µM | ACHN 0.314 µM | SK-MEL-2 0.173 µM | SF-268 0.183 µM | T47D 0.0191 µM | SK-OV-3 0.32 µM | OVCAR-3 0.152 µM | EKVX 0.0227 µM
1.87 µM: HCT-15

CN1CCN(CCCN)CC1
inactive: SNB-75 > 100 µM | KM12 > 100 µM | SR > 100 µM | NCI-H226 > 100 µM | SN12C > 100 µM | UACC-257 > 100 µM | COLO 205 > 100 µM | MDA-N > 100 µM | A498 > 100 µM | PC-3 > 100 µM | MOLT-4 > 100 µM | A549 > 100 µM | ACHN > 100 µM | SK-MEL-2 > 100 µM | SF-268 > 100 µM | T47D > 100 µM | SK-OV-3 > 100 µM | OVCAR-3 > 100 µM | EKVX > 100 µM
> 100 µM: HCT-15
